System: Plasmodium berghei
Experiment: Luciferase/luciferin-expressing antifolate-resistant parasites were used to infect a culture of HepG2 cells that were pre-incubated with compounds. Infected hepatocytes emit light due to the luciferase reaction. Assay results are presented as the percent inhibition of light emission compared to control. […]
Assay type: functional
Details: sporozoite; for IC90: read-out: LUCIFERASE INFECTION ASSAY - IC90
[1] = read-out: LUCIFERASE INFECTION ASSAY - IC50

SMILES	IC50 [1]	IC90	further results
CCn1c2ccccc2c2cc(/C=C(\C#N)c3nnc(N4CCOCC4)n3-c3ccccc3)ccc21	> 10 µM	> 10 µM	–
O=C(Nc1ccc(Oc2ccc([N+](=O)[O-])c3cnccc23)cc1)c1ccccc1	–	> 10 µM	IC50 (FFLUC_HILL_SLOPE 3.45, FFLUC_R_SQUARED 0.514, PBLUC_HILL_SLOPE 3.38, PBLUC_R_SQUARED 0.0773, read-out: LUCIFERASE INFECTION ASSAY - IC50): 7.36 µM
COCCCN=C(S)NNC(=O)c1ccc(C(C)(C)C)cc1	–	> 10.2 µM	IC50 (PBLUC_HILL_SLOPE 2.41, PBLUC_R_SQUARED 0.0684, read-out: LUCIFERASE INFECTION ASSAY - IC50): 8.61 µM
COc1ccc(CSc2nnc(CSc3cccs3)n2C)cc1	> 9.08 µM	> 9.08 µM	–
Cc1cc(C(=O)Nc2nc3ccc(Cl)cc3s2)c2c(C)nn(C)c2n1	–	9.09 µM	IC50 (HEPG2TOX_HILL_SLOPE 1.29, HEPG2TOX_R_SQUARED 0.966, PBLUC_HILL_SLOPE 2.52, PBLUC_R_SQUARED 0.194, read-out: LUCIFERASE INFECTION ASSAY - IC50): 3.81 µM
c1csc(SCc2ccc3nonc3c2)c1	–	> 13.3 µM	IC50 (PBLUC_HILL_SLOPE 1.33, PBLUC_R_SQUARED 0.35, read-out: LUCIFERASE INFECTION ASSAY - IC50): > 13.3 µM
Cc1ccc(-n2nc(C)c(NC(=O)Cn3c(NCc4ccccc4)nc4ccccc43)c2C)cc1	> 10 µM	> 10 µM	–
Cn1cc(C(=O)Nc2ccc(-c3nc4ccccc4[nH]3)cc2)c(-c2ccc3c(c2)OCCCO3)n1	–	4.31 µM	IC50 (HEPG2TOX_HILL_SLOPE 2.56, HEPG2TOX_R_SQUARED 0.953, PBLUC_HILL_SLOPE 7.83, PBLUC_R_SQUARED 0.745, read-out: LUCIFERASE INFECTION ASSAY - IC50): 3.25 µM
CC(OC(=O)c1ccccc1O)C(N)=O (centres undefined)	> 10 µM	> 10 µM	–
CCCNC(=O)C1(C)CCN(CCCC(=O)c2ccc(C)c(C)c2)C1 (centres undefined)	> 9.58 µM	> 9.58 µM	–
O=C(CCSCc1cc(Cl)c2c(c1)OCO2)Nc1ccc(Cl)cc1F	> 10 µM	> 10 µM	–
COc1ccc(Sc2ccc(NC(=O)c3ccc(Cl)cc3Cl)cc2C#N)cc1	> 7.69 µM	> 7.69 µM	–
CCOC(=O)c1[nH]c2cc(OC)c(OC)cc2c1NC(=O)c1ccccc1OC	–	> 8.28 µM	IC50 (PBLUC_HILL_SLOPE 12.7, PBLUC_R_SQUARED 0.193, read-out: LUCIFERASE INFECTION ASSAY - IC50): 8.06 µM
CN(Cc1ccc2c(c1)OCO2)c1ccc(C(=O)NC2CC2)cn1	–	> 10 µM	IC50 (PBLUC_HILL_SLOPE 3.82, PBLUC_R_SQUARED 0.17, read-out: LUCIFERASE INFECTION ASSAY - IC50): 6.72 µM
Fc1ccc(-c2cnc3cnc(-c4ccccc4Cl)cn23)cc1Cl	–	> 9.21 µM	IC50 (PBLUC_HILL_SLOPE 3.59, PBLUC_R_SQUARED 0.419, read-out: LUCIFERASE INFECTION ASSAY - IC50): 8.08 µM
CCCCNC(=O)c1c(NC(=O)c2cccc(Cl)c2Cl)nc2ccccn12	–	> 8.14 µM	IC50 (PBLUC_HILL_SLOPE 8.82, PBLUC_R_SQUARED 0.193, read-out: LUCIFERASE INFECTION ASSAY - IC50): 6.71 µM
CC(=O)Nc1cccc(-c2ccc3c(-c4ccccc4Oc4ccccc4)[nH]nc3n2)c1	–	> 7.85 µM	IC50 (HEPG2TOX_HILL_SLOPE 12.7, HEPG2TOX_R_SQUARED 0.516, PBLUC_HILL_SLOPE 10.9, PBLUC_R_SQUARED 0.441, read-out: LUCIFERASE INFECTION ASSAY - IC50): 6.81 µM
Nc1c(NCCO)cc(NC2CCCCC2)c2c1C(=O)c1ccccc1C2=O	–	> 8.7 µM	IC50 (FFLUC_HILL_SLOPE 12.9, FFLUC_R_SQUARED 0.405, PBLUC_HILL_SLOPE 2.49, PBLUC_R_SQUARED 0.563, read-out: LUCIFERASE INFECTION ASSAY - IC50): > 8.7 µM
CN(C)CCNc1nc2sc3c(c2c(=O)n1-c1ccccc1)CCCCC3	–	> 8.63 µM	IC50 (PBLUC_HILL_SLOPE 1.45, PBLUC_R_SQUARED 0.611, read-out: LUCIFERASE INFECTION ASSAY - IC50): 8.23 µM
COc1ccc(-c2cnc3cnc(-c4ccc(N5CCN(C)CC5)cc4)cn23)cn1	> 8.24 µM	> 8.24 µM	–
N#CC(c1ccccc1)c1ccc(NC(=S)NCC2CCCO2)cc1Cl (centres undefined)	–	> 10 µM	IC50 (PBLUC_HILL_SLOPE 1.33, PBLUC_R_SQUARED 0.895, read-out: LUCIFERASE INFECTION ASSAY - IC50): 4.42 µM
O=C(NCCOc1cccc(Oc2ccccc2)c1)c1cccs1	–	> 9.72 µM	IC50 (HEPG2TOX_HILL_SLOPE 9.69, HEPG2TOX_R_SQUARED 0.418, PBLUC_HILL_SLOPE 2.28, PBLUC_R_SQUARED 0.595, read-out: LUCIFERASE INFECTION ASSAY - IC50): 4.13 µM
